Patent publication US11986532B2 (Arvinas Operations, Inc., priority 2021, dated 2024)
Read-outs that look alike come from different tables or passages of the source.

Target: T1, BCL6 (Homo sapiens, UniProt P41182)
T1 construct: endogenous in cells; host or cells: T47D breast cancer epithelial cells
Assay: Immunofluorescence protocol for high content imaging of BCL6 (degradation) in T47D cells, 3 days compound treatment
Format: cell-based
Conditions: for Dmax: read-out: Mean Dmax (%)** category; for DC50: read-out: Mean DC50 (nM)* category
Procedure, shortened: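 T47D cells in RPMI1640-10% FBS were treated with an 11-point 3-fold dilution series (final top 0.1 or 1 μM) for 3 days at 37° C. After PFA fixation and Triton permeabilization, cells were immunostained with rabbit anti-BCL6 (1:300, overnight 4° C), Alexa-488 secondary, CellMask-647 and Hoechst, then imaged at 10×, 4 fields/well.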

[1] = T47D cells, 3 days compound treatment

DC50 [1] [nM] | Dmax [1] [%] | SMILES | Dmax (T47D) [%] | DC50 [nM]
– | – | CNC(=O)COc1cc2cc(Nc3nc(N4CCC(O[C@H]5C[C@H](N6CCN(c7c(OC)cc8c(c7C)C(=O)N(C7CCC(=O)NC7=O)C8=O)CC6)C5)CC4)ncc3Cl)ccc2n(C(C)C)c1=O (stereo partly shown) [Compound 266, 2-({6-[(5-chloro-2-{4-[(1r,3r)-3-{4-[2-(2,6-dioxopiperidin-3-yl)-6-methoxy-4-methyl-1,3-dioxo-2,3-dihydro-1H-isoindol-5-yl]piperazin-1-yl}cyclobutoxy]piperidin-1-yl}pyrimidin-4-yl)amino]-2-oxo-1-(propan-2-yl)-1,2-dihydroquinolin-3-yl}oxy)-N-methylacetamide] | ≥ 70 | < 10
< 10 | < 50 | CNC(=O)COc1cc2cc(Nc3nc(N4CCC(CN5CCC6(CN(c7ccc8c(c7)C(=O)N(C7CCC(=O)NC7=O)C8=O)C6)C(F)C5)CC4)ncc3Cl)ccc2n(C(C)C)c1=O (stereo not shown) [Compound 134, 2-{[6-({5-chloro-2-[4-({2-[2-(2,6-dioxopiperidin-3-yl)-1,3-dioxo-2,3-dihydro-1H-isoindol-5-yl]-5-fluoro-2,7-diazaspiro[3.5]nonan-7-yl}methyl)piperidin-1-yl]pyrimidin-4-yl}amino)-2-oxo-1-(propan-2-yl)-1,2-dihydroquinolin-3-yl]oxy}-N-methylacetamide] | – | –
< 10 | ≥ 70 | CNC(=O)COc1cc2c(F)c(Nc3nc(N4CCN(CC5CCC6(CC5)CN(c5cccc7c5C(=O)N(C5CCC(=O)NC5=O)C7=O)C6)CC4)ncc3Cl)ccc2n(C(C)C)c1=O (stereo not shown) [Compound 169, 2-{[6-({5-chloro-2-[4-({2-[2-(2,6-dioxopiperidin-3-yl)-1,3-dioxo-2,3-dihydro-1H-isoindol-4-yl]-2-azaspiro[3.5]nonan-7-yl}methyl)piperazin-1-yl]pyrimidin-4-yl}amino)-5-fluoro-2-oxo-1-(propan-2-yl)-1,2-dihydroquinolin-3-yl]oxy}-N-methylacetamide] | – | –
– | – | CNC(=O)COc1cc2cc(Nc3nc(N4CCN(CC5CCC6(CC5)CN(c5cccc7c5CN(C5CCC(=O)NC5=O)C7=O)C6)CC4)ncc3Cl)ccc2n(C(C)C)c1=O (stereo not shown) [Compound 313, 2-{[6-({5-chloro-2-[4-({2-[2-(2,6-dioxopiperidin-3-yl)-1-oxo-2,3-dihydro-1H-isoindol-4-yl]-2-azaspiro[3.5]nonan-7-yl}methyl)piperazin-1-yl]pyrimidin-4-yl}amino)-2-oxo-1-(propan-2-yl)-1,2-dihydroquinolin-3-yl]oxy}-N-methylacetamide] | 50 to 70 | < 10
< 10 | ≥ 70 | CNC(=O)COc1cc2cc(Nc3nc(N4CCC(C(C)(C)N5CCC6(CC5)CN(c5ccc7c(c5)CN(C5CCC(=O)NC5=O)C7=O)C6)CC4)ncc3Cl)ccc2n(C(C)C)c1=O (stereo not shown) [Compound 58, 2-{[6-({5-chloro-2-[4-(2-{2-[2-(2,6-dioxopiperidin-3-yl)-1-oxo-2,3-dihydro-1H-isoindol-5-yl]-2,7-diazaspiro[3.5]nonan-7-yl}propan-2-yl)piperidin-1-yl]pyrimidin-4-yl}amino)-2-oxo-1-(propan-2-yl)-1,2-dihydroquinolin-3-yl]oxy}-N-methylacetamide] | – | –
– | – | CNC(=O)COc1cc2cc(Nc3nc(N4CCC(CN5CC(N6CCC(c7ccc8c(c7)C(=O)N(C7CCC(=O)NC7=O)C8=O)C(F)C6)C5)CC4)ncc3Cl)ccc2n(C(C)C)c1=O (stereo not shown) [Compound 213, 2-({6-[(5-chloro-2-{4-[(3-{4-[2-(2,6-dioxopiperidin-3-yl)-1,3-dioxo-2,3-dihydro-1H-isoindol-5-yl]-3-fluoropiperidin-1-yl}azetidin-1-yl)methyl]piperidin-1-yl}pyrimidin-4-yl)amino]-2-oxo-1-(propan-2-yl)-1,2-dihydroquinolin-3-yl}oxy)-N-methylacetamide] | 50 to 70 | 10 to 50
< 10 | 50 to 70 | CNC(=O)COc1cc2cc(Nc3nc(N4CCC(CN5CCC6(CCN(c7c(F)ccc8c7C(=O)N(C7CCC(=O)NC7=O)C8=O)C6)C5)CC4)ncc3Cl)ccc2n(C(C)C)c1=O (stereo not shown) [Compound 139, 2-{[6-({5-chloro-2-[4-({7-[2-(2,6-dioxopiperidin-3-yl)-5-fluoro-1,3-dioxo-2,3-dihydro-1H-isoindol-4-yl]-2,7-diazaspiro[4.4]nonan-2-yl}methyl)piperidin-1-yl]pyrimidin-4-yl}amino)-2-oxo-1-(propan-2-yl)-1,2-dihydroquinolin-3-yl]oxy}-N-methylacetamide] | – | –
– | – | CNC(=O)COc1cc2cc(Nc3nc(N4CCC(O[C@H]5C[C@H](N6CC7(CN(c8ccc9c(c8C)C(=O)N(C8CCC(=O)NC8=O)C9=O)C7)C6)C5)CC4)ncc3Cl)ccc2n(C(C)C)c1=O (stereo partly shown) [Compound 420, 2-({6-[(5-chloro-2-{4-[(1r,3r)-3-{6-[2-(2,6-dioxopiperidin-3-yl)-4-methyl-1,3-dioxo-2,3-dihydro-1H-isoindol-5-yl]-2,6-diazaspiro[3.3]heptan-2-yl}cyclobutoxy]piperidin-1-yl}pyrimidin-4-yl)amino]-2-oxo-1-(propan-2-yl)-1,2-dihydroquinolin-3-yl}oxy)-N-methylacetamide] | ≥ 70 | < 10
– | – | CNC(=O)COc1cc2cc(Nc3nc(N4CCC(O[C@H]5C[C@H](N6CCCN(c7ccc8c(c7C)C(=O)N(C7CCC(=O)NC7=O)C8=O)CC6)C5)CC4)ncc3Cl)ccc2n(C(C)C)c1=O (stereo partly shown) [Compound 417, 2-({6-[(5-chloro-2-{4-[(1r,3r)-3-{4-[2-(2,6-dioxopiperidin-3-yl)-4-methyl-1,3-dioxo-2,3-dihydro-1H-isoindol-5-yl]-1,4-diazepan-1-yl}cyclobutoxy]piperidin-1-yl}pyrimidin-4-yl)amino]-2-oxo-1-(propan-2-yl)-1,2-dihydroquinolin-3-yl}oxy)-N-methylacetamide] | ≥ 70 | < 10

SMILES | DC50 [1] [nM] | Dmax [1] [%] | Dmax (T47D) [%] | DC50 [nM]
CNC(=O)COc1cc2cc(Nc3nc(N4CCC(O[C@H]5C[C@H](N6C[C@@H](C)N(c7ccc8c(c7C)C(=O)N(C7CCC(=O)NC7=O)C8=O)C[C@@H]6C)C5)CC4)ncc3Cl)ccc2n(C(C)C)c1=O (stereo partly drawn) [Compound 207, 2-({6-[(5-chloro-2-{4-[(1r,3r)-3-[(2S,5R)-4-[2-(2,6-dioxopiperidin-3-yl)-4-methyl-1,3-dioxo-2,3-dihydro-1H-isoindol-5-yl]-2,5-dimethylpiperazin-1-yl]cyclobutoxy]piperidin-1-yl}pyrimidin-4-yl)amino]-2-oxo-1-(propan-2-yl)-1,2-dihydroquinolin-3-yl}oxy)-N-methylacetamide] | < 10 | ≥ 70 | – | –
CNC(=O)COc1cc2cc(Nc3nc(N4CCC(O[C@H]5C[C@H](N6CC[C@@H](c7ccc8c(c7F)CN([C@H]7CCC(=O)NC7=O)C8=O)C(C)(C)C6)C5)CC4)ncc3Cl)ccc2n(C(C)C)c1=O [Compound 209, 2-({6-[(5-chloro-2-{4-[(1r,3r)-3-[(4R)-4-{2-[(3S)-2,6-dioxopiperidin-3-yl]-4-fluoro-1-oxo-2,3-dihydro-1H-isoindol-5-yl}-3,3-dimethylpiperidin-1-yl]cyclobutoxy]piperidin-1-yl}pyrimidin-4-yl)amino]-2-oxo-1-(propan-2-yl)-1,2-dihydroquinolin-3-yl}oxy)-N-methylacetamide] | < 10 | ≥ 70 | – | –
